Test results: PMC8510290, “Fishing of α-Glucosidase’s Ligands from Aloe vera by α-Glucosidase Functionalized Magnetic Nanoparticles” (Molecules, 2021)

Molecular target: T1, α-glucosidase (Saccharomyces cerevisiae, UniProt P53341)
T1 construct: gene MAL12
Assay: p-NPG hydrolysis assay (activation, maximal effect ratio) with purified enzyme; also fished out by enzyme-immobilized magnetic nanoparticles
Format: biochemical

T1 sequence (P53341 whole entry): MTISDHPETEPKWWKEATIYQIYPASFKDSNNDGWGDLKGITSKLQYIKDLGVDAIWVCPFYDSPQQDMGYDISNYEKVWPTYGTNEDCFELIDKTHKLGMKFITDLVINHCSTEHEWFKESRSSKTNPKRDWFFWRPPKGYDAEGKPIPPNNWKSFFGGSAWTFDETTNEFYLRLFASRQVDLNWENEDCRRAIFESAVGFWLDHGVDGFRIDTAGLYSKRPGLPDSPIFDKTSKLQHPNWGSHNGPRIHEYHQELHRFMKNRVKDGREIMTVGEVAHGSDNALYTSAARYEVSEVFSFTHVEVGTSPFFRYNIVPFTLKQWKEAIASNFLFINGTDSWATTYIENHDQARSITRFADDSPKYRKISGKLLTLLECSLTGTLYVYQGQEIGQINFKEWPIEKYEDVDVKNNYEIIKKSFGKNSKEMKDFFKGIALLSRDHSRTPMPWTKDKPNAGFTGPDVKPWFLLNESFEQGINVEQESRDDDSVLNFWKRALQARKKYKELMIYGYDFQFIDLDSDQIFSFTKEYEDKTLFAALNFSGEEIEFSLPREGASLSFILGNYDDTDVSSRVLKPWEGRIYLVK

| Compound | Emax [%] |
| --- | --- |
| COc1cc(-c2c(C)cc(O)cc2O)oc(=O)c1 [compound 1, aloenin aglycone] | 26.4 ± 0.8 |
| CC(=O)c1c(C[C@@H]2Cc3cc(O)cc(O)c3C(=O)O2)cc(O)cc1O[C@@H]1O[C@H](CO)[C@@H](O)[C@H](OC(=O)/C=C/c2ccc(O)cc2)[C@H]1O [compound 2, aloeacone] | 17.8 ± 0.3 |
